Assay results published in PubChem BioAssay AID248 (DTP/NCI, 2004).
Where “and” joins values, the source holds several entries; their conditions need not be identical. Identical values can stand only once. Toxic doses and inconclusive results are not listed.

Tested on: L1210 leukemia ip in BDF1 mice, survival T/C
Assay: NCI In Vivo Anticancer Drug Screen. Data for tumor model L1210 Leukemia (intraperitoneal) in B6D2F1 (BDF1) mice
Conditions: endpoint: mean survival time, higher = longer survival
Procedure, shortened: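 Each compound was tested against a transplantable tumor grown in mice. The endpoint was survival, with treated animals benchmarked against vehicle controls as a simple ratio.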

[1] = dose: 100.0 mg/kg/injection, schedule: Q01DX009 (ip), vehicle: Klucel (hydroxypropylcellulose) (HPC)
[2] = dose: 100.0 mg/kg/injection, schedule: Q04DX003 (ip), vehicle: Klucel (hydroxypropylcellulose) (HPC)
[3] = dose: 200.0 mg/kg/injection, schedule: Q01DX009 (ip), vehicle: Klucel (hydroxypropylcellulose) (HPC)
[4] = dose: 200.0 mg/kg/injection, schedule: Q04DX003 (ip), vehicle: Klucel (hydroxypropylcellulose) (HPC)
[5] = dose: 400.0 mg/kg/injection, schedule: Q04DX003 (ip), vehicle: Klucel (hydroxypropylcellulose) (HPC)
[6] = dose: 100.0 mg/kg/injection, schedule: Q01DX001 (ip), vehicle: Klucel (hydroxypropylcellulose) (HPC)
[7] = dose: 200.0 mg/kg/injection, schedule: Q01DX001 (ip), vehicle: Klucel (hydroxypropylcellulose) (HPC)
[8] = dose: 400.0 mg/kg/injection, schedule: Q01DX009 (ip), vehicle: Klucel (hydroxypropylcellulose) (HPC)
[9] = dose: 200.0 mg/kg/injection, schedule: Q01DX009 (ip), vehicle: saline with Tween-80

Question: O=C(NC(CSC(=O)c1ccccc1)C(=O)O)OCc1ccccc1 (stereo not drawn) was tested. Which T/C [1] did it give?
Answer: 104 % of control

Question: What about the T/C [2] of the same compound?
Answer: 101 % of control

Question: And the T/C [3]?
Answer: 93 % of control

Question: What about the T/C [4] of the same compound?
Answer: 95 % of control

Question: And the T/C [5]?
Answer: 95 % of control

Question: How did the T/C [6] turn out when O=C1OCCN1C(=O)c1ccc([N+](=O)[O-])cc1 was run?
Answer: 97 % of control

Question: And the T/C [1]?
Answer: 89 % of control

Question: And the T/C [2]?
Answer: 97 % of control

Question: And the T/C [7]?
Answer: 94 % of control

Question: What about the T/C [3] of the same compound?
Answer: 94 % of control

Question: And the T/C [4]?
Answer: 98 % of control

Question: And the T/C (dose: 400.0 mg/kg/injection, schedule: Q01DX001 (ip), vehicle: Klucel (hydroxypropylcellulose) (HPC))?
Answer: 97 % of control

Question: What about the T/C [8] of the same compound?
Answer: 88 % of control

Question: What about the T/C [5] of the same compound?
Answer: 98 % of control

Question: Cc1ccc([N+](=O)[O-])cc1NC(=O)Nc1ccc(C(=O)O)cc1 was tested. Which T/C [1] did it give?
Answer: 90 % of control

Question: And the T/C [3]?
Answer: 98 % of control

Question: And the T/C [8]?
Answer: 104 % of control

Question: What does the source list for O=NN(CCCl)C(=O)Nc1ccc(C(=O)O)cc1?
Answer: T/C (dose: 1.5 mg/kg/injection, schedule: Q01DX Z (ip), vehicle: saline): 171 % of control; T/C (dose: 2.0 mg/kg/injection, schedule: Q01DX Z (ip), vehicle: saline): 162 % of control; T/C (dose: 2.5 mg/kg/injection, schedule: Q01DX001 (ip), vehicle: carboxymethylcellulose (CMC)): 118 % of control and 124 % of control; T/C (dose: 3.75 mg/kg/injection, schedule: Q## X001 (ip), vehicle: carboxymethylcellulose (CMC)): 106 % of control; T/C (dose: 4.5 mg/kg/injection, schedule: Q01DX Z (ip), vehicle: carboxymethylcellulose (CMC)): 151 % of control; T/C (dose: 5.0 mg/kg/injection, schedule: Q01DX001 (ip), vehicle: carboxymethylcellulose (CMC)): 153 % of control and 182 % of control; T/C (dose: 9.0 mg/kg/injection, schedule: Q01DX Z (ip), vehicle: carboxymethylcellulose (CMC)): 117 % of control; T/C (dose: 15.0 mg/kg/injection, schedule: Q01DX001 (ip), vehicle: carboxymethylcellulose (CMC)): 151 % of control and 168 % of control and 190 % of control; T/C (dose: 15.0 mg/kg/injection, schedule: Q## X001 (ip), vehicle: carboxymethylcellulose (CMC)): 152 % of control; T/C (dose: 20.0 mg/kg/injection, schedule: Q01DX001 (ip), vehicle: carboxymethylcellulose (CMC)): 152 % of control; T/C (dose: 30.0 mg/kg/injection, schedule: Q01DX001 (ip), vehicle: carboxymethylcellulose (CMC)): 218 % of control and 227 % of control; T/C (dose: 30.0 mg/kg/injection, schedule: Q## X001 (ip), vehicle: carboxymethylcellulose (CMC)): 191 % of control

Question: How did the T/C (dose: 100.0 mg/kg/injection, schedule: Q01DX001 (ip), vehicle: saline) turn out when O=C(OCc1cnccn1)c1cnccn1 was run?
Answer: 107 % of control

Question: And the T/C (dose: 200.0 mg/kg/injection, schedule: Q01DX001 (ip), vehicle: saline)?
Answer: 94 % of control

Question: What about the T/C (dose: 400.0 mg/kg/injection, schedule: Q01DX001 (ip), vehicle: saline) of the same compound?
Answer: 100 % of control

Question: With O=C(CCl)NCc1ccc([N+](=O)[O-])cc1 as the compound, how does the T/C (dose: 50.0 mg/kg/injection, schedule: Q01DX001 (ip), vehicle: Klucel (hydroxypropylcellulose) (HPC)) read?
Answer: 100 % of control

Question: And the T/C [6]?
Answer: 103 % of control

Question: And the T/C [7]?
Answer: 101 % of control

Question: Which T/C (dose: 50.0 mg/kg/injection, schedule: Q01DX001 (ip), vehicle: saline with Tween-80) does the source give for CSc1ccc(NC(=O)C(C)Oc2ccccc2)cc1 (stereo not drawn) here?
Answer: 95 % of control

Question: What about the T/C (dose: 100.0 mg/kg/injection, schedule: Q01DX001 (ip), vehicle: saline with Tween-80) of the same compound?
Answer: 87 % of control and 92 % of control

Question: What about the T/C (dose: 100.0 mg/kg/injection, schedule: Q01DX009 (ip), vehicle: saline with Tween-80) of the same compound?
Answer: 97 % of control and 102 % of control

Question: What about the T/C (dose: 100.0 mg/kg/injection, schedule: Q04DX002 (ip), vehicle: saline with Tween-80) of the same compound?
Answer: 94 % of control and 96 % of control

Question: And the T/C (dose: 200.0 mg/kg/injection, schedule: Q01DX001 (ip), vehicle: saline with Tween-80)?
Answer: 87 % of control

Question: What about the T/C [9] of the same compound?
Answer: 93 % of control and 102 % of control

Question: And the T/C (dose: 200.0 mg/kg/injection, schedule: Q04DX002 (ip), vehicle: saline with Tween-80)?
Answer: 96 % of control and 105 % of control

Question: And the T/C (dose: 400.0 mg/kg/injection, schedule: Q01DX001 (ip), vehicle: saline with Tween-80)?
Answer: 87 % of control and 90 % of control

Question: And the T/C (dose: 400.0 mg/kg/injection, schedule: Q01DX009 (ip), vehicle: saline with Tween-80)?
Answer: 95 % of control and 98 % of control

Question: And the T/C (dose: 400.0 mg/kg/injection, schedule: Q04DX002 (ip), vehicle: saline with Tween-80)?
Answer: 96 % of control and 101 % of control

Question: Cc1ccc(Nc2nc(N)nc(N)c2C=O)cc1 was tested. Which T/C (dose: 50.0 mg/kg/injection, schedule: Q01DX001 (ip), vehicle: alcohol) did it give?
Answer: 89 % of control

Question: What about the T/C (dose: 100.0 mg/kg/injection, schedule: Q01DX001 (ip), vehicle: alcohol) of the same compound?
Answer: 86 % of control

Question: And the T/C (dose: 200.0 mg/kg/injection, schedule: Q01DX001 (ip), vehicle: alcohol)?
Answer: 102 % of control

Question: What about the T/C (dose: 400.0 mg/kg/injection, schedule: Q01DX001 (ip), vehicle: alcohol) of the same compound?
Answer: 86 % of control

Question: With Fc1ccc(NC(=S)SCc2ccc(Cl)c(Cl)c2)cc1F as the compound, how does the T/C (dose: 50.0 mg/kg/injection, schedule: Q01DX009 (ip), vehicle: saline with Tween-80) read?
Answer: 108 % of control

Question: And the T/C (dose: 100.0 mg/kg/injection, schedule: Q04DX003 (ip), vehicle: saline with Tween-80)?
Answer: 102 % of control

Question: What about the T/C [9] of the same compound?
Answer: 112 % of control

Question: What about the T/C (dose: 200.0 mg/kg/injection, schedule: Q04DX003 (ip), vehicle: saline with Tween-80) of the same compound?
Answer: 106 % of control
